This is an account of results in ChEMBL document CHEMBL1130385, “Synthesis and biological activities of conformationally restricted, tricyclic nonclassical antifolates as inhibitors of dihydrofolate reductases” (J Med Chem, 1997).

Assay [1] addresses T1, Bifunctional dihydrofolate reductase-thymidylate synthase (Toxoplasma gondii, UniProt Q07422).
T1 sequence (Q07422 whole entry): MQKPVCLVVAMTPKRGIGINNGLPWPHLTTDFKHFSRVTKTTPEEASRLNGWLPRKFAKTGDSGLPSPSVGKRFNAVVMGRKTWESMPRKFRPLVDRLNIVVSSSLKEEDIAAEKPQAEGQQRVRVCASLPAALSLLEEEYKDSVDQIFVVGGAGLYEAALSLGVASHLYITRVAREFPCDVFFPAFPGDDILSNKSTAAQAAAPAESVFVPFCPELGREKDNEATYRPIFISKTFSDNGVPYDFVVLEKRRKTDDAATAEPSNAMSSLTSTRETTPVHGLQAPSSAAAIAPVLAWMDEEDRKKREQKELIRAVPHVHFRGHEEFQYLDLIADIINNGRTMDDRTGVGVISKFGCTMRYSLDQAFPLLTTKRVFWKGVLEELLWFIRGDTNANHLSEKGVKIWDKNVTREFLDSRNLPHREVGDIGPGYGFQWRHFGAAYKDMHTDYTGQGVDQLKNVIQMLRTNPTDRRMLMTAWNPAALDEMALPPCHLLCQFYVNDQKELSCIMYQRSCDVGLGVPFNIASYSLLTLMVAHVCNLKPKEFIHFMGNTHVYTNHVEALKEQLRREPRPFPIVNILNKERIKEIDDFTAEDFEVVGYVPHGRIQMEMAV
As to the kind of experiment: Inhibitory concentration against Toxoplasma gondii Dihydrofolate reductase.

In assay [2] the target is T2, Dihydrofolate reductase (Rattus norvegicus, UniProt Q920D2).
T2 sequence (Q920D2 whole entry): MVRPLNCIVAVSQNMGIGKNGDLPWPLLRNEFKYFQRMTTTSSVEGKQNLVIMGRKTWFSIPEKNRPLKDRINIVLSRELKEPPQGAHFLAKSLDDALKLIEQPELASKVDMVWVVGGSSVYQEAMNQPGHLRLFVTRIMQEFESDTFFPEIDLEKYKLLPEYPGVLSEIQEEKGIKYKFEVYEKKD
Description: Inhibitory concentration against Rat liver Dihydrofolate reductase

Assay [3] concerns the target T3, Dihydrofolate reductase (Pneumocystis carinii, UniProt P16184).
T3 sequence (P16184 whole entry): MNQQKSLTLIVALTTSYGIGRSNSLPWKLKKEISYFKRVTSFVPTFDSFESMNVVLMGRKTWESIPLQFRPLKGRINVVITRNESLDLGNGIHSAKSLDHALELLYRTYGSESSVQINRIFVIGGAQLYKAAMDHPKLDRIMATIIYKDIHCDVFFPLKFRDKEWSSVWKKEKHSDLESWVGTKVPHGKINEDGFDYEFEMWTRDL
Description: Inhibitory concentration against Pneumocystis carinii Dihydrofolate reductase

What is called IC50 is the concentration at which inhibition is half-maximal. Regarding `COc1cc(N2C=C3C(=O)N=c4nc(N)nc(N)c4=C3CC2)cc(OC)c1OC`, the IC50 stood at 1120 nM in assay [1] and 240 nM in assay [2].

`COc1cc(N2CCC3c4c(N)nc(N)nc4NCC3C2)cc(OC)c1OC` (centres undefined): the IC50 came out at 290 nM in assay [1] and 160 nM in assay [2].

Regarding `COc1c(Cl)c(-n2ccc3c4c(N)nc(N)nc4nc(=O)c-3c2)c(Cl)c(OC)c1OC`, it took 500 nM to reach half-maximal inhibition in assay [2] (IC50). This counts as sub-micromolar.

Turning to `COc1cc(N2CCc3c(cnc4nc(N)nc(N)c34)C2)cc(OC)c1OC`, the results for the IC50 in assay [2] and in assay [3] were more than 2700 nM and more than 2270 nM, respectively.

As for `COc1cc(-n2ccc3c4c(N)nc(N)nc4nc(=O)c-3c2)cc(OC)c1OC`, the IC50 is 520 nM in assay [1], 86 nM in assay [2] and 2400 nM in assay [3].

In the case of `COc1cc(N2C=Cc3c(cnc4nc(N)nc(N)c34)C2)cc(OC)c1OC`, the IC50 came to 760 nM in assay [1] and 470 nM in assay [2].

As for `COc1cc(N2CCc3c(c(=O)[nH]c4nc(N)nc(N)c34)C2)cc(OC)c1OC`, the IC50 in assay [2] and in assay [3] was more than 5000 nM each time.
